In patent publication US8158810B2 (Gilead Sciences, Inc., priority 2006, dated 2012):

target: T1, hMAO-A (Homo sapiens, UniProt P21397); assay: MAO-A inhibition assay; format: biochemical; settings: up to 10 μM; No = no inhibition; printed in the IC50 hMAO-A column
T1 construct: purchased Sigma M7316
T1 sequence (P21397 1-527): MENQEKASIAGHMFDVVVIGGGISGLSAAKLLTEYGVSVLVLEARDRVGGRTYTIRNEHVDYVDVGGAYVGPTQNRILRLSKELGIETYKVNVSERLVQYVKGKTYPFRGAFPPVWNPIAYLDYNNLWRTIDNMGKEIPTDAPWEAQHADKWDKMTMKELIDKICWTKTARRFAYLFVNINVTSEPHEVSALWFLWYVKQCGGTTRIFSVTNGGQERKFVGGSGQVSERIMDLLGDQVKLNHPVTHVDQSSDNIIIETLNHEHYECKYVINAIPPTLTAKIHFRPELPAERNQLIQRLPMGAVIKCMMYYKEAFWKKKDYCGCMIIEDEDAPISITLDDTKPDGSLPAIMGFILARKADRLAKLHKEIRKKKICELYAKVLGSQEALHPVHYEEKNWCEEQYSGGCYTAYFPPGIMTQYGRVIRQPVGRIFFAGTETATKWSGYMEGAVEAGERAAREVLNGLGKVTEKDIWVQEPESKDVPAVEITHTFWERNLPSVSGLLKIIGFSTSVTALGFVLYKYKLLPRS
Protocol: MAO-A (Sigma M7316) and MAO-B (Sigma M7441) inhibition assays were conducted in 96-well micro-plates according to the method described by Zhou et al. [Analytical Biochemistry 253, 169-174, 1997]. […] Reactions were initiated by the addition of a pre-mixed solution of tyramine, horseradish peroxidase and Amplex Red, and were allowed to proceed at 37° C. for 30 min. Enzyme activities were determined by measuring absorbance at 570 nm (SpectralMax Plate reader), absorbance of oxidized Amplex Red generated by this horseradish peroxidase-coupled reaction. Nonspecifically formed products were determined in the presence of 2 and 10 µM clorgyline and deprenyl for MAO-A and MAO-B, respectively. IC50 values were determined by fitting concentration-inhibition data to sigmoidal dose-response curves with two-floating parameters: IC50 and Hill coefficient.

Structure (SMILES) | hMAO-A inhibition up to 10 μM
O=c1c(-c2ccc(O)cc2)coc2cc(OCc3cc(-c4cccc(C(F)(F)F)c4)on3)ccc12 [PT-45, 3-(4-hydroxyphenyl)-7-({5-[3-(trifluoromethyl)phenyl]isoxazol-3-yl}methoxy)chromen-4-one] | No
COC(=O)c1cnc(COc2ccc3c(=O)c(-c4ccc(O)cc4)coc3c2)o1 [PT-47, methyl 2-{[3-(4-hydroxyphenyl)-4-oxochromen-7-yloxy]methyl}-1,3-oxazole-5-carboxylate] | No
O=C(O)c1cnc(COc2ccc3c(=O)c(-c4ccc(O)cc4)coc3c2)o1 [PT-49, 2-{[3-(4-hydroxyphenyl)-4-oxochromen-7-yloxy]methyl}-1,3-oxazole-5-carboxylic acid] | No
O=c1c(-c2ccc(O)cc2)coc2cc(OC[C@H](O)CNCc3cccc(C(F)(F)F)c3)ccc12 [PT-53, 7-[(2R)-2-hydroxy-3-({[3-(trifluoromethyl)phenyl]methyl}amino)propoxy]-3-(4-hydroxyphenyl)chromen-4-one] | No
O=c1c(-c2ccc(O)cc2)coc2cc(OCNCc3cccc(C(F)(F)F)c3)ccc12 [PT-54, 3-(4-hydroxyphenyl)-7-[({[3-(trifluoromethyl)phenyl]methyl}amino)methoxy]chromen-4-one] | No
O=c1c(-c2ccc(O)cc2)coc2cc(OC[C@H](O)CNCc3cc(F)cc(F)c3)ccc12 [PT-55, 7-((2R)-3-{[(3,5-difluorophenyl)methyl]amino}-2-hydroxypropoxy)-3-(4-hydroxyphenyl)chromen-4-one] | No
C[C@@H](NCC(=O)COc1ccc2c(=O)c(-c3ccc(O)cc3)coc2c1)c1ccc(F)cc1 [PT-56, 7-(3-{[(1R)-1-(4-fluorophenyl)ethyl]amino}-2-oxopropoxy)-3-(4-hydroxyphenyl)chromen-4-one] | 36%
O=c1c(-c2ccc(O)cc2)coc2cc(OCCCc3ccccc3)ccc12 [PT-57, 3-(4-hydroxyphenyl)-7-(3-phenylpropoxy)chromen-4-one] | No
O=c1c(-c2ccc(O)cc2)coc2cc(OCc3nnc(-c4cccc(F)c4)o3)ccc12 [PT-58, 7-{[5-(3-fluorophenyl)(1,3,4-oxadiazol-2-yl)]methoxy}-3-(4-hydroxyphenyl)chromen-4-one] | No
O=c1c(-c2ccc(O)cc2)coc2cc(OCc3nnc(-c4cccc(C(F)(F)F)c4)o3)ccc12 [PT-60, 3-(4-hydroxyphenyl)-7-({5-[3-(trifluoromethyl)phenyl](1,3,4-oxadiazol-2-yl)}methoxy)chromen-4-one] | No
O=c1c(-c2ccc(O)cc2)coc2cc(OCc3cnc(-c4ccccc4)o3)ccc12 [PT-61, 3-(4-hydroxyphenyl)-7-[(2-phenyl(1,3-oxazol-5-yl))methoxy]chromen-4-one] | No
O=c1c(-c2ccc(O)cc2)coc2cc(OCc3nnc(-c4ccccc4Cl)s3)ccc12 [PT-64, 7-{[5-(2-chlorophenyl)(1,3,4-thiadiazol-2-yl)]methoxy}-3-(4-hydroxyphenyl)chromen-4-one] | No
Cc1nc(-c2ccc(C(F)(F)F)cc2)sc1COc1ccc2c(=O)c(-c3ccc(C#N)cc3)coc2c1 [PT-65, 4-[7-({4-methyl-2-[4-(trifluoromethyl)phenyl](1,3-thiazol-5-yl)}methoxy)-4-oxochromen-3-yl]benzenecarbonitrile] | No
Cc1nc(-c2ccc(C(F)(F)F)cc2)sc1COc1ccc2c(=O)c(-c3ccc(NS(C)(=O)=O)cc3)coc2c1 [PT-66, 3-{4-[(methylsulfonyl)amino]phenyl}-7-({4-methyl-2-[4-(trifluoromethyl)phenyl](1,3-thiazol-5-yl)}methoxy)chromen-4-one] | No
COc1ccc(-c2coc3cc(OCc4sc(-c5ccc(C(F)(F)F)cc5)nc4C)ccc3c2=O)cn1 [PT-67, 3-(6-methoxy(3-pyridyl))-7-({4-methyl-2-[4-(trifluoromethyl)phenyl](1,3-thiazol-5-yl)}methoxy)chromen-4-one] | No
N#Cc1ccc(-c2coc3cc(OCc4nnc(-c5cc(F)cc(C(F)(F)F)c5)o4)ccc3c2=O)cc1 [PT-68, 4-[7-({5-[5-fluoro-3-(trifluoromethyl)phenyl](1,3,4-oxadiazol-2-yl)}methoxy)-4-oxochromen-3-yl]benzenecarbonitrile] | No
N#Cc1ccc(-c2coc3cc(OCc4cc(-c5cccc(C(F)(F)F)c5)no4)ccc3c2=O)cc1 [PT-69, 4-[4-oxo-7-({3-[3-(trifluoromethyl)phenyl]isoxazol-5-yl}methoxy)chromen-3-yl]benzenecarbonitrile] | No
CS(=O)(=O)Nc1ccc(-c2coc3cc(OCc4noc(-c5cc(F)cc(C(F)(F)F)c5)n4)ccc3c2=O)cc1 [PT-70, 7-({5-[3-fluoro-5-(trifluoromethyl)phenyl](1,2,4-oxadiazol-3-yl)}methoxy)-3-{4-[(methylsulfonyl)amino]phenyl}chromen-4-one] | No
CS(=O)(=O)c1ccc(-c2coc3cc(OCc4noc(-c5cc(F)cc(C(F)(F)F)c5)n4)ccc3c2=O)cc1 [PT-71, 7-({5-[3-fluoro-5-(trifluoromethyl)phenyl](1,2,4-oxadiazol-3-yl)}methoxy)-3-[4-(methylsulfonyl)phenyl]chromen-4-one] | No
CC(=O)c1cccc(-c2coc3cc(OCc4noc(-c5cc(F)cc(C(F)(F)F)c5)n4)ccc3c2=O)c1 [PT-73, 3-(3-acetylphenyl)-7-({5-[3-fluoro-5-(trifluoromethyl)phenyl](1,2,4-oxadiazol-3-yl)}methoxy)chromen-4-one] | No
O=c1c(-c2ccc(O)cc2)coc2cc(OCc3nnc(-c4cc(F)cc(C(F)(F)F)c4)o3)ccc12 [PT-74, 7-({5-[3-fluoro-5-(trifluoromethyl)phenyl](1,3,4-oxadiazol-2-yl)}methoxy)-3-(4-hydroxyphenyl)chromen-4-one] | No
O=c1c(-c2ccc(O)cc2)coc2cc(OCc3nnc(-c4ccc(F)cc4)o3)ccc12 [PT-81, 7-{[5-(4-fluorophenyl)(1,3,4-oxadiazol-2-yl)]methoxy}-3-(4-hydroxyphenyl)chromen-4-one] | No
O=c1c(-c2ccc(O)cc2)coc2cc(OCc3ccncc3)ccc12 [PT-82, 3-(4-hydxoxyphenyl)-7-(4-pyridylmethoxy)chromen-4-one] | No
O=C(COc1ccc2c(=O)c(-c3ccc(O)cc3)coc2c1)Nc1ccccc1C(F)(F)F [PT-84, 2-[3-(4-hydroxyphenyl)-4-oxochromen-7-yloxy]-N-[2-(trifluoromethyl)phenyl]-acetamide] | No
O=c1c(-c2ccc(O)cc2)coc2cc(OCCc3ccccc3)ccc12 [PT-87, 3-(4-hydroxyphenyl)-7-(2-phenylethoxy)chromen-4-one] | No
O=c1c(-c2ccc(O)cc2)coc2cc(OCCOc3ccc(Cl)cc3)ccc12 [PT-89, 7-[2-(4-chlorophenoxy)ethoxy]-3-(4-hydroxyphenyl)chromen-4-one] | 34%

same assay, conditions: up to 30 μM; No = no inhibition

Structure (SMILES) | hMAO-A inhibition up to 30 μM
COC(=O)c1cccc(COc2ccc3c(=O)c(-c4ccc(O)cc4)coc3c2)c1 [PT-33, methyl 3-{[3-(4-hydroxyphenyl)-4-oxochromen-7-yloxy]methyl}benzoate] | No
